Measurements: ChEMBL document CHEMBL1201861, “Genomics of Drug Sensitity in Cancer screening data, Wellcome Trust Sanger Institute”

Tests used:
Test in all cases: cells
Type in all cases: functional, cell-based
Settings in all cases: Homo sapiens
COLO-741 = test system: COLO-741
Description: SANGER: Inhibition of human COLO-741 cell growth in a cell viability assay.

Calu-3 = test system: Calu-3;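 note: growth inhibition of human Calu-3 cells, determined with a cell viability assay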
Description: SANGER: Inhibition of human Calu-3 cell growth in a cell viability assay.

G-361 = test system: G-361
GAMG = test system: GAMG;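 note: cell growth inhibition measured by a viability assay in the GAMG human cell line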
Description: SANGER: Inhibition of human GAMG cell growth in a cell viability assay.

H4 = test system: H4
Description: SANGER: Inhibition of human H4 cell growth in a cell viability assay.

HCC1806 = test system: HCC1806;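 note: growth inhibition of the cancer cell line, determined with a cell viability assay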
Description: SANGER: Inhibition of human HCC1806 cell growth in a cell viability assay.

HCC1937 = test system: HCC1937;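 note: growth inhibition measured with a cell viability read-out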
Description: SANGER: Inhibition of human HCC1937 cell growth in a cell viability assay.

HGC-27 = test system: HGC-27;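 note: growth inhibition of human HGC-27 cells, read out in a cell viability assay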
Description: SANGER: Inhibition of human HGC-27 cell growth in a cell viability assay.

HO-1-N-1 = test system: HO-1-N-1;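 note: growth inhibition of human HO-1-N-1 cells, read out with a cell viability assay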
Description: SANGER: Inhibition of human HO-1-N-1 cell growth in a cell viability assay.

J82 = test system: J82;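 note: growth inhibition of J82 cells, read out with a cell viability assay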
Description: SANGER: Inhibition of human J82 cell growth in a cell viability assay.

KU-19-19 = test system: KU-19-19
Description: SANGER: Inhibition of human KU-19-19 cell growth in a cell viability assay.

KYSE-150 cell line = test system: KYSE-150 cell line;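 note: growth inhibition of human KYSE-150 cells, read out with a cell viability assay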
Description: SANGER: Inhibition of human KYSE-150 cell growth in a cell viability assay.

KYSE-510 = test system: KYSE-510;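 note: cell viability readout used to measure how strongly growth of the cell line is suppressed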
Description: SANGER: Inhibition of human KYSE-510 cell growth in a cell viability assay.

LCLC-97TM1 = test system: LCLC-97TM1;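 note: cell viability assay measuring growth inhibition of human LCLC-97TM1 cells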
Description: SANGER: Inhibition of human LCLC-97TM1 cell growth in a cell viability assay.

LN-405 = test system: LN-405
Description: SANGER: Inhibition of human LN-405 cell growth in a cell viability assay.

MDA-MB-231 = test system: MDA-MB-231
Description: SANGER: Inhibition of human MDA-MB-231 cell growth in a cell viability assay.

MDA-MB-453 = test system: MDA-MB-453
Description: SANGER: Inhibition of human MDA-MB-453 cell growth in a cell viability assay.

MKN-7 = test system: MKN-7;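 note: growth inhibition of MKN-7 cells, read out with a cell viability assay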
Description: SANGER: Inhibition of human MKN7 cell growth in a cell viability assay.

NB12 = test system: NB12;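 note: growth inhibition of human NB12 cells, read out by a cell viability assay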
Description: SANGER: Inhibition of human NB12 cell growth in a cell viability assay.

NCI-H1437 = test system: NCI-H1437;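 note: growth inhibition of human NCI-H1437 cells, read out by a cell viability assay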
Description: SANGER: Inhibition of human NCI-H1437 cell growth in a cell viability assay.

NCI-H1623 = test system: NCI-H1623;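 note: cell viability assay used as the read-out for growth inhibition of NCI-H1623 cells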
Description: SANGER: Inhibition of human NCI-H1623 cell growth in a cell viability assay.

NCI-H1693 = test system: NCI-H1693;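 note: growth inhibition of the human cell line, read out with a cell viability assay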
Description: SANGER: Inhibition of human NCI-H1693 cell growth in a cell viability assay.

NCI-H2452 = test system: NCI-H2452;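 note: growth inhibition of NCI-H2452 cells, read out with a cell viability assay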
Description: SANGER: Inhibition of human NCI-H2452 cell growth in a cell viability assay.

NCI-H292 = test system: NCI-H292;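 note: growth inhibition of NCI-H292 cells, read out with a cell viability assay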
Description: SANGER: Inhibition of human NCI-H292 cell growth in a cell viability assay.

NCI-H520 = test system: NCI-H520;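 note: growth inhibition of NCI-H520 cells, measured by a cell viability assay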
Description: SANGER: Inhibition of human NCI-H520 cell growth in a cell viability assay.

NCI-H661 = test system: NCI-H661;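 note: cell viability assay read-out, IC50 being the concentration that inhibits growth of the cells by half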
Description: SANGER: Inhibition of human NCI-H661 cell growth in a cell viability assay.

NCI-H727 = test system: NCI-H727;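 note: growth inhibition of human NCI-H727 cells, read out with a cell viability assay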
Description: SANGER: Inhibition of human NCI-H727 cell growth in a cell viability assay.

NY = test system: NY
Description: SANGER: Inhibition of human NY cell growth in a cell viability assay.

OE33 = test system: OE33;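 note: growth inhibition of human OE33 cells, measured by a cell viability assay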
Description: SANGER: Inhibition of human OE33 cell growth in a cell viability assay.

PC-14 = test system: PC-14;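 note: cell viability assay measuring inhibition of PC-14 cell growth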
Description: SANGER: Inhibition of human PC-14 cell growth in a cell viability assay.

PC-3 = test system: PC-3;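 note: cell viability assay measuring growth inhibition of PC-3 cells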
Description: SANGER: Inhibition of human PC-3 cell growth in a cell viability assay.

RCM-1 = test system: RCM-1;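 note: growth inhibition of the RCM-1 line, determined with a cell viability readout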
Description: SANGER: Inhibition of human RCM-1 cell growth in a cell viability assay.

RMG-I = test system: RMG-I;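 note: growth inhibition of human RMG-I cells, read out with a cell viability assay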
Description: SANGER: Inhibition of human RMG-I cell growth in a cell viability assay.

RO82-W-1 = test system: RO82-W-1;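 note: growth inhibition of human RO82-W-1 cells, measured with a cell viability assay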
Description: SANGER: Inhibition of human RO82-W-1 cell growth in a cell viability assay.

RVH-421 = test system: RVH-421
Description: SANGER: Inhibition of human RVH-421 cell growth in a cell viability assay.

SK-MES-1 = test system: SK-MES-1;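 note: growth inhibition of human SK-MES-1 cells, read out with a cell viability assay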
Description: SANGER: Inhibition of human SK-MES-1 cell growth in a cell viability assay.

SK-OV-3 = test system: SK-OV-3;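 note: growth inhibition of SK-OV-3 human cells, read out with a cell viability assay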
Description: SANGER: Inhibition of human SK-OV-3 cell growth in a cell viability assay.

SW13 = test system: SW13;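 note: IC50 is inhibition of SW13 cell growth, read out with a cell viability assay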
Description: SANGER: Inhibition of human SW13 cell growth in a cell viability assay.

SW1463 = test system: SW1463;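 note: growth inhibition of SW1463 cells, determined with a cell viability assay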
Description: SANGER: Inhibition of human SW1463 cell growth in a cell viability assay.

T47D = test system: T47D;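 note: growth inhibition of human T47D cells, measured with a cell viability assay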
Description: SANGER: Inhibition of human T47D cell growth in a cell viability assay.

A204 = test system: A204;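 note: growth inhibition of human A204 cells, read out with a cell viability assay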
Description: SANGER: Inhibition of human A204 cell growth in a cell viability assay.

AN3-CA = test system: AN3-CA;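 note: growth inhibition of human AN3-CA cells measured by a cell viability assay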
Description: SANGER: Inhibition of human AN3-CA cell growth in a cell viability assay.

ASPC1 = test system: ASPC1;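 note: growth inhibition of AsPC-1 cells, read out with a cell viability assay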
Description: SANGER: Inhibition of human AsPC-1 cell growth in a cell viability assay.

BHY = test system: BHY;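 note: cell growth inhibition read out by a viability assay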
Description: SANGER: Inhibition of human BHY cell growth in a cell viability assay.

CAL-120 = test system: CAL-120;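 note: cell growth inhibition, read out as cell viability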
Description: SANGER: Inhibition of human CAL-120 cell growth in a cell viability assay.

CAL-51 = test system: CAL-51;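 note: human CAL-51 cell line, growth inhibition read out via a cell viability assay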
Description: SANGER: Inhibition of human CAL-51 cell growth in a cell viability assay.

UACC-62 = test system: UACC-62;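 note: growth inhibition of human UACC-62 cells, read out by a cell viability assay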
Description: SANGER: Inhibition of human UACC-62 cell growth in a cell viability assay.

YAPC = test system: YAPC;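 note: growth inhibition of YAPC cells, measured with a cell viability assay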
Description: SANGER: Inhibition of human YAPC cell growth in a cell viability assay.

COLO-679 = test system: COLO-679
Description: SANGER: Inhibition of human COLO-679 cell growth in a cell viability assay.

COLO-680N = test system: COLO-680N;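 note: cell viability assay used to measure inhibition of COLO-680N cell growth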
Description: SANGER: Inhibition of human COLO-680N cell growth in a cell viability assay.

Q: For `O=c1cc(N2CCOCC2)oc2c(-c3cccc4c3sc3ccccc34)cccc12`, which IC50 (COLO-741) is on record?
A: > 2000 nM

Q: What about the IC50 (Calu-3) of the same compound?
A: > 2000 nM

Q: What about the IC50 (G-361) of the same compound?
A: > 2000 nM

Q: What about the IC50 (GAMG) of the same compound?
A: > 2000 nM

Q: What about the IC50 (H4) of the same compound?
A: > 2000 nM

Q: And the IC50 (HCC1806)?
A: > 2000 nM

Q: What about the IC50 (HCC1937) of the same compound?
A: > 2000 nM

Q: And the IC50 (HGC-27)?
A: > 2000 nM

Q: And the IC50 (HO-1-N-1)?
A: > 2000 nM

Q: What about the IC50 (J82) of the same compound?
A: > 2000 nM

Q: And the IC50 (KU-19-19)?
A: > 2000 nM

Q: What about the IC50 (KYSE-150 cell line) of the same compound?
A: > 2000 nM

Q: And the IC50 (KYSE-510)?
A: > 2000 nM

Q: What about the IC50 (LCLC-97TM1) of the same compound?
A: > 2000 nM

Q: And the IC50 (LN-405)?
A: > 2000 nM

Q: What about the IC50 (MDA-MB-231) of the same compound?
A: > 2000 nM

Q: What about the IC50 (MDA-MB-453) of the same compound?
A: > 2000 nM

Q: What about the IC50 (MKN-7) of the same compound?
A: > 2000 nM

Q: And the IC50 (NB12)?
A: > 2000 nM

Q: What about the IC50 (NCI-H1437) of the same compound?
A: > 2000 nM

Q: What about the IC50 (NCI-H1623) of the same compound?
A: > 2000 nM

Q: What about the IC50 (NCI-H1693) of the same compound?
A: > 2000 nM

Q: What about the IC50 (NCI-H2452) of the same compound?
A: > 2000 nM

Q: And the IC50 (NCI-H292)?
A: 1740 nM

Q: And the IC50 (NCI-H520)?
A: > 2000 nM

Q: And the IC50 (NCI-H661)?
A: > 2000 nM

Q: What about the IC50 (NCI-H727) of the same compound?
A: > 2000 nM

Q: What about the IC50 (NY) of the same compound?
A: > 2000 nM

Q: What about the IC50 (OE33) of the same compound?
A: > 2000 nM

Q: And the IC50 (PC-14)?
A: > 2000 nM

Q: And the IC50 (PC-3)?
A: > 2000 nM

Q: What about the IC50 (RCM-1) of the same compound?
A: > 2000 nM

Q: And the IC50 (RMG-I)?
A: > 2000 nM

Q: And the IC50 (RO82-W-1)?
A: > 2000 nM

Q: And the IC50 (RVH-421)?
A: > 2000 nM

Q: And the IC50 (SK-MES-1)?
A: > 2000 nM

Q: What about the IC50 (SK-OV-3) of the same compound?
A: > 2000 nM

Q: What about the IC50 (SW13) of the same compound?
A: > 2000 nM

Q: What about the IC50 (SW1463) of the same compound?
A: > 2000 nM

Q: What about the IC50 (T47D) of the same compound?
A: > 2000 nM

Q: And the IC50 (A204)?
A: > 2000 nM

Q: And the IC50 (AN3-CA)?
A: > 2000 nM

Q: And the IC50 (ASPC1)?
A: > 2000 nM

Q: What about the IC50 (BHY) of the same compound?
A: > 2000 nM

Q: And the IC50 (CAL-120)?
A: > 2000 nM

Q: And the IC50 (CAL-51)?
A: > 2000 nM

Q: What about the IC50 (UACC-62) of the same compound?
A: > 2000 nM

Q: And the IC50 (YAPC)?
A: > 2000 nM

Q: And the IC50 (COLO-679)?
A: > 2000 nM

Q: What about the IC50 (COLO-680N) of the same compound?
A: > 2000 nM

Q: Which results are given for `COc1cc(Nc2c(C#N)cnc3cc(OCCCN4CCN(C)CC4)c(OC)cc23)c(Cl)cc1Cl` [BOSUTINIB]?
A: IC50 (COLO-741): > 2000 nM; IC50 (Calu-3): > 2000 nM; IC50 (G-361): > 2000 nM; IC50 (GAMG): > 2000 nM; IC50 (H4): 1240 nM; IC50 (HCC1806): 352 nM; IC50 (HCC1937): > 2000 nM; IC50 (HGC-27): > 2000 nM; IC50 (HO-1-N-1): 1260 nM; IC50 (J82): > 2000 nM; IC50 (KU-19-19): > 2000 nM; IC50 (KYSE-150 cell line): > 2000 nM; IC50 (KYSE-510): > 2000 nM; IC50 (LCLC-97TM1): > 2000 nM; IC50 (LN-405): > 2000 nM; IC50 (MDA-MB-231): > 2000 nM; IC50 (MDA-MB-453): > 2000 nM; IC50 (MKN-7): > 2000 nM; IC50 (NB12): > 2000 nM; IC50 (NCI-H1437): > 2000 nM; IC50 (NCI-H1623): > 2000 nM; IC50 (NCI-H1693): 2000 nM; IC50 (NCI-H2452): > 2000 nM; IC50 (NCI-H292): 441 nM; IC50 (NCI-H520): > 2000 nM; IC50 (NCI-H661): > 2000 nM; IC50 (NCI-H727): > 2000 nM; IC50 (NY): > 2000 nM; IC50 (OE33): > 2000 nM; IC50 (PC-14): 1290 nM; IC50 (PC-3): > 2000 nM; IC50 (RCM-1): > 2000 nM; IC50 (RMG-I): > 2000 nM; IC50 (RO82-W-1): > 2000 nM; IC50 (RVH-421): > 2000 nM; IC50 (SK-MES-1): > 2000 nM; IC50 (SK-OV-3): > 2000 nM; IC50 (SW13): 738 nM; IC50 (SW1463): > 2000 nM; IC50 (T47D): > 2000 nM; IC50 (A204): > 2000 nM; IC50 (AN3-CA): > 2000 nM; IC50 (ASPC1): > 2000 nM; IC50 (BHY): 1230 nM; IC50 (CAL-120): > 2000 nM; IC50 (CAL-51): > 2000 nM; IC50 (UACC-62): > 2000 nM; IC50 (YAPC): > 2000 nM; IC50 (COLO-679): > 2000 nM; IC50 (COLO-680N): > 2000 nM
